Source: patent publication US8088806B2 (Achillion Pharmaceuticals, Inc., priority 2005, dated 2012)

Tested on: HCV replicon
Assay: Replicon based assay of HCV replication inhibition (NPT ELISA)
Assay type: cell-based, Hepatitis C virus
Settings: Hepatitis C virus, replicon based assay of HCV replication inhibition; Table II; read-out: Activity
Outline: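 NPT (neomycin phosphotransferase) content, proportional to replicon replication, quantified by capture ELISA on day four. Before that, replicon-bearing Huh-7 cells in G418-free screening medium were exposed three days at 37° C to compound, typically six doses from 10 to 0.03 micromolar, with equal DMSO across wells.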

| SMILES | EC50 [µM] |
| --- | --- |
| CCCCCCCOc1ccc(Nc2nc(-c3ccc(Cl)s3)cs2)cc1 [compound 393, 4-(5-chlorothiophen-2-yl)-N-(4-(heptyloxy)phenyl)thiazol-2-amine] | < 1 |
| CCCCCCCOc1ccc(Nc2nc(-c3ccc(Br)cc3)cs2)cc1 [compound 394, 4-(4-bromophenyl)-N-(4-(heptyloxy)phenyl)thiazol-2-amine] | < 1 |
| CCCCCCCOc1ccc(Nc2nc(-c3ccc4[nH]c(=O)oc4c3)cs2)cc1 [compound 395, 6-(2-(4-(heptyloxy)phenylamino)thia-zol-4-yl)benzo[d]exazol-2(3H)-one] | < 1 |
| CCCCCCCOc1ccc(Nc2nc(-c3cccc(C(=O)O)c3)cs2)cc1 [compound 396, 3-(2-(4-(heptyloxy)phenylamino)thia-zol-4-yl)benzoic acid] | < 1 |
| CCCCCCCOc1ccc(Nc2nc(-c3ccccn3)cs2)cc1 [compound 397, N-(4-(heptyloxy)phenyl)-4-(pyridin-2-yl)thiazol-2-amine] | < 1 |
| CCCCCCCOc1ccc(Nc2nc(-c3c[nH]c4ccccc34)cs2)cc1 [compound 398, N-(4-(heptyloxy)phenyl)-4-(1H-indol-3-yl)thiazol-2-amine] | < 1 |
| CCCCCCCOc1ccc(Nc2nc(-c3ccc(-c4ccccn4)s3)cs2)cc1 [compound 399, N-(4-(heptyloxy)phenyl)-4-(5-(pyridin-2-yl)thiophen-2-yl)thiazol-2-amine] | < 1 |
| CCCCCCCOc1ccc(Nc2nc(-c3nc4ccccc4s3)cs2)cc1 [compound 400, 4-(benzo[d]thiazol-2-yl)-N-(4-(heptyloxy)phenyl)thiazol-2-amine] | 1 to 10 |
| CCCCCCCOc1ccc(Nc2nc(-c3cc4ccccc4o3)cs2)cc1 [compound 401, 4-(benzofuran-2-yl)-N-(4-(heptyloxy)phenyl)thiazol-2-amine] | 1 to 10 |
| CCCCCCCOc1ccc(Nc2nc(-c3sc(-c4cnccn4)nc3C)cs2)cc1 [compound 402] | < 1 |
| CCCCCCCOc1ccc(Nc2nc(CC)cs2)cc1 [compound 403, 4-ethyl-N-(4-(heptyloxy)phenyl)thiazol-2-amine] | < 1 |
| CCCCCOc1ccc(Nc2nc(-c3ccc(O)c(O)c3)cs2)cc1C(F)(F)F [compound 404, 4-(2-(3-(trifluoromethyl)-4-(pentyloxy)phenylamino)thia-zol-4-yl)benzene-1,2-diol] | < 1 |
| CCCCCOc1ccc(Nc2nc(-c3ccc(Cl)s3)cs2)cc1C(F)(F)F [compound 405] | < 1 |
| CCCCCOc1ccc(Nc2nc(-c3ccc(Br)cc3)cs2)cc1C(F)(F)F [compound 406, 4-(4-bromophenyl)-N-(3-(trifluoromethyl)-4-(pentyloxy)phenyl)thiazol-2-amine] | < 1 |
| CCCCCOc1ccc(Nc2nc(-c3ccc4[nH]c(=O)oc4c3)cs2)cc1C(F)(F)F [compound 407, 6-(2-(3-(trifluoromethyl)-4-(pentyloxy)phenylamino)thia-zol-4-yl)benzo[d]oxazol-2(3H)-one] | < 1 |
| CCCCCOc1ccc(Nc2nc(-c3cccc(C(=O)O)c3)cs2)cc1C(F)(F)F [compound 408, 3-(2-(3-(trifluoromethyl)-4-(pentyloxy)phenylamino)thia-zol-4-yl)benzoic acid] | < 1 |
| CCCCCOc1ccc(Nc2nc(-c3ccccn3)cs2)cc1C(F)(F)F [compound 409, N-(3-(trifluoromethyl)-4-(pentyloxy)phenyl)-4-(pyridin-2-yl)thiazol-2-amine] | < 1 |
| CCCCCOc1ccc(Nc2nc(-c3c[nH]c4ccccc34)cs2)cc1C(F)(F)F [compound 410, N-(3-(trifluoromethyl)-4-(pentyloxy)phenyl)-4-(1H-indol-3-yl)thiazol-2-amine] | < 1 |
| CCCCCOc1ccc(Nc2nc(-c3ccc(-c4ccccn4)s3)cs2)cc1C(F)(F)F [compound 411, N-(3-(trifluoromethyl)-4-(pentyloxy)phenyl)-4-(5-(pyridin-2-yl)thiophen-2-yl)thiazol-2-amine] | < 1 |
| CCCCCOc1ccc(Nc2nc(-c3nc4ccccc4s3)cs2)cc1C(F)(F)F [compound 412, 4-(benzo[d]thiazol-2-yl)-N-(3-(trifluoromethyl)-4-(pentyloxy)phenyl)thiazol-2-amine] | < 1 |
| CCCCCOc1ccc(Nc2nc(-c3cc4ccccc4o3)cs2)cc1C(F)(F)F [compound 413, 4-(benzofuran-2-yl)-N-(3-(trifluoromethyl)-4-(pentyloxy)phenyl)thiazol-2-amine] | < 1 |
| CCCCCOc1ccc(Nc2nc(-c3sc(-c4cnccn4)nc3C)cs2)cc1C(F)(F)F [compound 414, N-(3-(trifluoromethyl)-4-(pentyloxy)phenyl)-4-(4-methyl-2-(pyrazin-2-yl)thiazol-5-yl)thiazol-2-amine] | < 1 |
| CCCCCOc1ccc(Nc2nc(CC)cs2)cc1C(F)(F)F [compound 415, 4-ethyl-N-(3-(trifluoromethyl)-4-(pentyloxy)phenyl)thiazol-2-amine] | < 1 |
| CCCCCCCCOc1ccc(Nc2nc(-c3ccncc3)cs2)cc1 [compound 416, N-(4-(octyloxy)phenyl)-4-(pyridin-4-yl)thiazol-2-amine] | < 1 |

| SMILES | EC50 [µM] |
| --- | --- |
| CCCCCOc1ccc(Nc2nc(-c3ccncc3)cs2)cc1F [compound 417, N-(3-fluoro-4-(pentyloxy)phenyl)-4-(pyridin-4-yl)thiazol-2-amine] | 1 to 10 |
| CCCCCOc1ccc(Nc2nc(-c3ccccn3)cs2)cc1F [compound 418, N-(3-fluoro-4-(pentyloxy)phenyl)-4-(pyridin-2-yl)thiazol-2-amine] | < 1 |
| CCCCCOc1ccc(Nc2nc(-c3cc4ccccc4o3)cs2)cc1F [compound 419, 4-(benzofuran-2-yl)-N-(3-fluoro-4-(pentyloxy)phenyl)thiazol-2-amine] | 1 to 10 |
| CCCCCCCOc1ccc(Nc2nc(-c3ccc(F)cc3)cs2)cc1 [compound 420, 4-(4-fluorophenyl)-N-(4-(heptyloxy)phenyl)thiazol-2-amine] | < 1 |
| CCCCCCCOc1ccc(Nc2nc(-c3ccc(Cl)c(Cl)c3)cs2)cc1 [compound 421, 4-(3,4-dichlorophenyl)-N-(4-(heptyloxy)phenyl)thiazol-2-amine] | < 1 |
| CCCCCCCOc1ccc(Nc2nc(-c3ccc(Cl)cc3)cs2)cc1 [compound 422, 4-(4-chlorophenyl)-N-(4-(heptyloxy)phenyl)thiazol-2-amine] | < 1 |
| CCCCCCCOc1ccc(Nc2nc(-c3ccc(F)cc3F)cs2)cc1 [compound 423, 4-(2,4-difluorophenyl)-N-(4-(heptyloxy)phenyl)thiazol-2-amine] | < 1 |
| CCCCCCCOc1ccc(Nc2nc(-c3ccc(OC)cc3)cs2)cc1 [compound 424, N-(4-(heptyloxy)phenyl)-4-(4-methoxyphenyl)thiazol-2-amine] | < 1 |
| CCCCCCCOc1ccc(Nc2nc(-c3ccc(OCC(=O)O)cc3)c(C)s2)cc1 [compound 425, 2-(4-(2-(4-(heptyloxy)phenylamino)-5-methylthiazol-4-yl)phenoxy)acetic acid] | < 1 |
| CCCCCOc1ccc(Nc2nc(-c3ccc(C(=O)O)cc3)cs2)cc1F [compound 426, 4-(2-(3-fluoro-4-(pentyloxy)phenylamino)thia-zol-4-yl)benzoic acid] | 1 to 10 |
| CCCCCOc1ccc(Nc2nc(CC)cs2)cc1F [compound 427, 4-ethyl-N-(3-fluoro-4-(pentyloxy)phenyl)thiazol-2-amine] | 1 to 10 |
| COc1ccc(Cl)cc1Nc1nc(-c2cccnc2)cs1 [compound 428, N-(5-chloro-2-methoxyphenyl)-4-(pyridin-3-yl)thiazol-2-amine] | 1 to 10 |
| CC(=O)Nc1ccc(Nc2nc(-c3cccs3)cs2)cc1 [compound 429, N-(4-(4-(thiophen-2-yl)thiazol-2-ylamino)phenyl)acetamide] | > 10 |
| CCCCCOc1c(F)cc(Nc2nc(-c3cccnc3)cs2)cc1F [compound 430, N-(3,5-difluoro-4-(pentyloxy)phenyl)-4-(pyridin-3-yl)thiazol-2-amine] | < 1 |
| CCCCCOc1ccc(Nc2nc(-c3cc(OC)ccc3OC)cs2)cc1C(F)(F)F [compound 431, N-(3-(trifluoromethyl)-4-(pentyloxy)phenyl)-4-(2,5-dimethoxyphenyl)thiazol-2-amine] | 1 to 10 |
| CCCCCCCOc1ccc(Nc2nc(-c3cc(OC)ccc3OC)cs2)cc1 [compound 432, N-(4-(heptyloxy)phenyl)-4-(2,5-dimethoxyphenyl)thiazol-2-amine] | < 1 |
| CCCCCOc1ccc(Nc2nc(-c3cc(OC)ccc3OC)cs2)cc1F [compound 433, N-(3-fluoro-4-(pentyloxy)phenyl)-4-(2,5-dimethoxyphenyl)thiazol-2-amine] | < 1 |
| CCCCCOc1ccc(Nc2nc(-c3cccc(O)c3)cs2)cc1C(F)(F)F [compound 434, 3-(2-(3-(trifluoromethyl)-4-(pentyloxy)phenylmino)thia-zol-4-yl)phenol] | 1 to 10 |
| CCCCCCCOc1ccc(Nc2nc(-c3cccc(O)c3)cs2)cc1 [compound 435, 3-(2-(4-(heptyloxy)phenylamino)thia-zol-4-yl)phenol] | < 1 |
| CCCCCCCCOc1ccc(Nc2nc(-c3cccc(O)c3)cs2)cc1 [compound 436, 3-(2-(4-(octyloxy)phenylamino)thia-zol-4-yl)phenol] | < 1 |
| CCCCCOc1ccc(Nc2nc(-c3ccc(NC(C)=O)cc3)cs2)cc1C(F)(F)F [compound 437, N-(4-(2-(3-(trifluoromethyl)-4-(pentyloxy)phenylamino)thia-zol-4-yl)phenyl)acetamide] | 1 to 10 |
| CCCCCCCOc1ccc(Nc2nc(-c3ccc(NC(C)=O)cc3)cs2)cc1 [compound 438, N-(4-(2-(4-(heptyloxy)phenylamino)thia-zol-4-yl)phenyl)acetamide] | < 1 |
| CCCCCOc1ccc(Nc2nc(-c3ccc(NC(C)=O)cc3)cs2)cc1F [compound 439, N-(4-(2-(3-fluoro-4-(pentyloxy)phenylamino)thia-zol-4-yl)phenyl)acetamide] | < 1 |
